According to ChEMBL document CHEMBL1201862, “PubChem BioAssay data set” (2004):
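These data come from cells grown in 96-well plates and exposed to compound for 48 hours at five concentrations. GI50: concentration for 50% inhibition of growth.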 The source made the active and inactive calls. Rule as the data show it: active = GI50 up to about 1.1 µM and inactive = higher.

What was measured:
Experiment in all cases: DTP human tumour cell line panel, 48 h
[1] = system: 786-0
[2] = system: A498
[3] = system: A549
[4] = system: ACHN
[5] = system: BT-549
[6] = system: CCRF-CEM
[7] = system: COLO 205
[8] = system: DU-145
[9] = system: EKVX
[10] = system: HCC 2998
[11] = system: HCT-116
[12] = system: HCT-15
[13] = system: HOP-62
[14] = system: HOP-92
[15] = system: HT-29
[16] = system: Hs-578T
[17] = system: IGROV-1
[18] = system: LOX IMVI
[19] = system: M14
[20] = system: MCF7
[21] = system: MDA-MB-231
[22] = system: MDA-MB-435
[23] = system: Malme-3M
[24] = system: NCI-H226
[25] = system: NCI-H23
[26] = system: NCI-H460
[27] = system: NCI-H522
[28] = system: NCI/ADR-RES
[29] = system: OVCAR-3
[30] = system: OVCAR-4
[31] = system: OVCAR-5
[32] = system: OVCAR-8
[33] = system: PC-3
[34] = system: RPMI-8226
[35] = system: RXF 393
[36] = system: SF-268
[37] = system: SF-539
[38] = system: SK-MEL-28
[39] = system: SK-MEL-2
[40] = system: SK-MEL-5
[41] = system: SK-OV-3
[42] = system: SN12C
[43] = system: SNB-19
[44] = system: SNB-75
[45] = system: SW-620
[46] = system: T47D
[47] = system: TK-10
[48] = system: U-251
[49] = system: UACC-257
[50] = system: UACC-62
[51] = system: UO-31
[52] = system: CAKI-1
[53] = system: HL-60
[54] = system: K562
[55] = system: KM12
[56] = system: MOLT-4
[57] = system: SF-295
[58] = system: SR

## Cc1ccccc1[P+](C)(c1ccccc1C)c1ccccc1C
[1]
  GI50: 24.8 µM (inactive)
[2]
  GI50: 18.5 µM (inactive)
[3]
  GI50: 13.1 µM (inactive)
[4]
  GI50: 15.8 µM (inactive)
[5]
  GI50: 7.48 µM (inactive)
[6]
  GI50: 33.3 nM (active)
[7]
  GI50: 10.6 µM (inactive)
[8]
  GI50: 29.2 µM (inactive)
[9]
  GI50: 5.07 µM (inactive)
[10]
  GI50: 2.77 µM (inactive)
[11]
  GI50: 6.79 µM (inactive)
[12]
  GI50: 19.9 µM
[13]
  GI50: 23.9 µM (inactive)
[14]
  GI50: 12.7 µM (inactive)
[15]
  GI50: 5.85 µM (inactive)
[16]
  GI50: 17.8 µM (inactive)
[17]
  GI50: 14.9 µM (inactive)
[18]
  GI50: 14.1 µM (inactive)
[19]
  GI50: 7.46 µM (inactive)
[20]
  GI50: 14 µM (inactive)
[21]
  GI50: 12.6 µM (inactive)
[22]
  GI50: 4.54 µM (inactive)
[23]
  GI50: 8.18 µM (inactive)
[24]
  GI50: 14.6 µM (inactive)
[25]
  GI50: 10.3 µM (inactive)
[26]
  GI50: 20 µM (inactive)
[27]
  GI50: 5.24 µM (inactive)
[28]
  GI50: 25.5 µM (inactive)
[29]
  GI50: 7.94 µM (inactive)
[30]
  GI50: 2.96 µM (inactive)
[31]
  GI50: 13.6 µM (inactive)
[32]
  GI50: 15 µM (inactive)
[33]
  GI50: 14.3 µM (inactive)
[34]
  GI50: 1.21 µM (inactive)
[35]
  GI50: 36.9 µM (inactive)
[36]
  GI50: 34.8 µM (inactive)
[37]
  GI50: 16.5 µM (inactive)
[38]
  GI50: 11.6 µM (inactive)
[39]
  GI50: 13.4 µM (inactive)
[40]
  GI50: 4.84 µM (inactive)
[41]
  GI50: 33.2 µM (inactive)
[42]
  GI50: 14.7 µM (inactive)
[43]
  GI50: 8.69 µM (inactive)
[44]
  GI50: 12.6 µM (inactive)
[45]
  GI50: 13.6 µM (inactive)
[46]
  GI50: 3.06 µM (inactive)
[47]
  GI50: 8.26 µM (inactive)
[48]
  GI50: 6.3 µM (inactive)
[49]
  GI50: 2.58 µM (inactive)
[50]
  GI50: 5.79 µM (inactive)
[51]
  GI50: 17.7 µM (inactive)

## CN(C)CCNCCCNc1c2ccccc2nc2cccc([N+](=O)[O-])c12
[1]
  GI50: < 0.0126 µM (active)
[2]
  GI50: 0.021 µM (active)
[3]
  GI50: < 0.017 µM (active)
[4]
  GI50: 0.017 µM (active)
[5]
  GI50: 0.157 µM (active)
[52]
  GI50: 38.5 nM (active)
[6]
  GI50: < 12.1 nM (active)
[7]
  GI50: < 0.0141 µM (active)
[8]
  GI50: < 0.0159 µM (active)
[9]
  GI50: < 0.017 µM (active)
[10]
  GI50: < 0.0126 µM (active)
[11]
  GI50: < 0.0161 µM (active)
[12]
  GI50: 0.0826 µM
[53]
  GI50: < 13.9 nM (active)
[13]
  GI50: 0.0288 µM (active)
[14]
  GI50: < 0.0156 µM (active)
[15]
  GI50: < 0.0125 µM (active)
[16]
  GI50: < 0.0386 µM (active)
[17]
  GI50: < 0.0205 µM (active)
[54]
  GI50: < 11.9 nM (active)
[55]
  GI50: 27 nM (active)
[18]
  GI50: < 0.0148 µM (active)
[19]
  GI50: 0.0224 µM (active)
[20]
  GI50: 0.0102 µM (active)
[21]
  GI50: < 0.0129 µM (active)
[22]
  GI50: < 0.0144 µM (active)
[56]
  GI50: < 10 nM (active)
[23]
  GI50: 0.0461 µM (active)
[24]
  GI50: 0.0248 µM (active)
[25]
  GI50: < 0.0121 µM (active)
[26]
  GI50: < 0.0121 µM (active)
[27]
  GI50: < 0.01 µM (active)
[28]
  GI50: 0.91 µM (active)
[29]
  GI50: < 0.0157 µM (active)
[30]
  GI50: < 0.0129 µM (active)
[31]
  GI50: < 0.0148 µM (active)
[32]
  GI50: < 0.0146 µM (active)
[33]
  GI50: < 0.0171 µM (active)
[34]
  GI50: < 0.0138 µM (active)
[35]
  GI50: 0.0138 µM (active)
[36]
  GI50: < 0.016 µM (active)
[57]
  GI50: < 16.3 nM (active)
[37]
  GI50: 0.0676 µM (active)
[38]
  GI50: 0.188 µM (active)
[39]
  GI50: 0.0197 µM (active)
[40]
  GI50: < 0.0181 µM (active)
[41]
  GI50: 0.0424 µM (active)
[42]
  GI50: < 0.0208 µM (active)
[43]
  GI50: 0.0298 µM (active)
[44]
  GI50: 0.0173 µM (active)
[58]
  GI50: < 10 nM (active)
[45]
  GI50: < 0.0144 µM (active)
[46]
  GI50: 0.0387 µM (active)
[47]
  GI50: 0.046 µM (active)
[48]
  GI50: < 0.0175 µM (active)
[49]
  GI50: 0.22 µM (active)
[50]
  GI50: 0.0446 µM (active)
[51]
  GI50: 0.0741 µM (active)
